Test results reported in patent publication US20230312550A1, “N-(2-(4-CYANOTHIAZOLIDIN-3-YL)-2-OXOETHYL)-QUINOLINE-4-CARBOXAMIDES” (AstraZeneca AB, priority 2020, published 2023).
pIC50, pKd: −log10 of the molar value. In brackets after ≈: the same amount, converted by molar mass.

Assays:
hFAP (M39-A757) = hFAP (M39-A757) (Homo sapiens (Human), UniProt Q12884); assay: hFAP binding assay (surface plasmon resonance); conditions: SPR, 20° C.; for hFAP Binding assay k(off) / hFAP Binding assay k(on): single cycle kinetics; for pKd: n = 1 or geometric mean n = 2-4
Protocol: Compounds were tested in a direct binding assay using 8K surface plasmon resonance biosensor (GE Healthcare) at 20° C. Immobilization of hFAP (M39-A757) on a CMD200M sensor chip (Xantec) was performed using standard amine coupling procedure in immobilization buffer (10 mM HEPES, 150 mM NaCl, 0.05% Tween20, pH 7.4). The surface was washed with 10 mM NaOH, 1M NaCl before being activated with EDC/NHS (GE Healthcare), followed by immobilization of hFAP (in 10 mM Acetate pH 5.0). Finally, the surface was deactivated by ethanolamine. Immobilization levels of hFAP were around 4000-6000 RU. The reference spot was treated as described, omitting the injection of hFAP. Compound concentration series were injected over the immobilized protein in increasing concentrations (2-500 nM) using single cycle kinetics in running buffer (20 mM TRIS, 150 mM NaCl, 0.05% Tween20, 1% DMSO, pH 7.4). Interaction models were fitted globally to the experimental traces, enabling determination of kon, koff and Kd.

[1] = biological target: Prolyl endopeptidase, Prolyl Oligopeptidase (hPREP) (Homo sapiens (Human), UniProt P48147); assay: hPrep inhibition assay; format: biochemical; conditions: hPREP 0.6 nM, Z-Gly-Pro-amino-methylcoumarin 50 μM; read-out: PREP IC50
Method in brief: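 Recombinant human PREP at 0.6 nM final with Z-Gly-Pro-AMC substrate at 50 μM final in Tris-HCl pH 7.5, NaCl, Triton X-100, glutathione; 15 min rt preincubation then 20 min rt reaction in dark. AMC fluorescence (ex 340/em 460 nm); IC50 from one-site dose-response fit of % inhibition.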

[2] = biological target: human Fibroblast activation protein alpha (hFAP) (Homo sapiens (Human), UniProt Q12884); assay: hFAP inhibition assay (tight binders); format: biochemical; conditions: Ala-Pro-AMC 20 μM, n = 1 or geometric mean n = 2-6; also: hFAP 2.4 pM
Protocol: The plates were read on a PHERAstar® reader with excitation 340 nm and emission 460 nm. Data were analyzed in Genedata Screener®. IC50 values were determined by plotting % inhibition versus log compound concentration and using a one site dose response model.

Kinetic solubility = conditions: kinetic from dmso stock
Protocol: Kinetic solubility was measured as described in Comput Aided Mol Des 2015, 29, 795.

[3] = Metabolic stability in human liver microsomes (HLM); conditions: human
Protocol: Metabolic stability in HLM was measured as described in J Comput Aided Mol Des 2015, 29, 795.

[4] = Metabolic stability in rat hepatocytes (rHep); conditions: n = 1 or geometric mean of n = 2-3
FAP = FAP (Homo sapiens (Human), UniProt Q12884); assay: hFAP inhibition assay; format: biochemical; conditions: Ala-Pro-AMC 20 μM, n = 1 or geometric mean n = 2-3
Protocol: 384 low volume black plates (Greiner #784076) were used. 4 μL, 0.48 nM enzyme solution (100 mM Tris HCl, 100 mM NaCl, 0.05% Chaps, pH 7.4) was added to 40 nL compounds (in DMSO) at 10 CR, 3 fold dilution series from 50 μM FAC. Plates were incubated for 15 min at rt in dark. 4 μL, 40 μM substrate solution (100 mM Tris HCl, 100 mM NaCl, 0.05% Chaps, pH 7.4) was added to each well. Plates were centrifuged at 1000 rpm and incubated for 30 min at rt in dark. The plates were read on a PHERAstar® reader with excitation 340 nm and emission 460 nm. Data were analyzed in Genedata Screener®. IC50 values were determined by plotting % inhibition versus log compound concentration and using a one site dose response model.

[5] = Solubility, kinetic solubility, n = 1 or average of n = 2-3
[6] = HLM CLint, n = 1 or average of n = 2-3

Sequence of Prolyl endopeptidase, Prolyl Oligopeptidase (hPREP) (P48147 whole entry): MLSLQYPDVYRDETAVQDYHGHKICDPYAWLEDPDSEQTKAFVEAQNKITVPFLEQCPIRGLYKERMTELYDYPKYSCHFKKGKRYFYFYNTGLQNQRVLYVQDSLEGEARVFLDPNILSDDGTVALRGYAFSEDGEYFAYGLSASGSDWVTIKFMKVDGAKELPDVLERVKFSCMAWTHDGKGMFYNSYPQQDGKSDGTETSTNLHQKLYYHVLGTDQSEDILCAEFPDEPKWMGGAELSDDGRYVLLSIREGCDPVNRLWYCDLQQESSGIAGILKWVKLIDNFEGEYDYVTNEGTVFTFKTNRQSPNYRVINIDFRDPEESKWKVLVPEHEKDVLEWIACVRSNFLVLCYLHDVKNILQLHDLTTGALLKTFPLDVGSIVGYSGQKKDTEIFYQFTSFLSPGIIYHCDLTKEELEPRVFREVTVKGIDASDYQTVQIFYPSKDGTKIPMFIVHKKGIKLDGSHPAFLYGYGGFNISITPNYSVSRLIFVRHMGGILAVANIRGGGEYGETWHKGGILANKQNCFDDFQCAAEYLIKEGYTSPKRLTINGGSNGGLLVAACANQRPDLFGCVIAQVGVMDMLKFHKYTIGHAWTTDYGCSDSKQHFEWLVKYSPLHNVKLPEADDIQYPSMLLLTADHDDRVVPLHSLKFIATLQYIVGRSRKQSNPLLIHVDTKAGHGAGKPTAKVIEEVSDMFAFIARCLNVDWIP
Sequence of hFAP (M39-A757) (Q12884 39-757): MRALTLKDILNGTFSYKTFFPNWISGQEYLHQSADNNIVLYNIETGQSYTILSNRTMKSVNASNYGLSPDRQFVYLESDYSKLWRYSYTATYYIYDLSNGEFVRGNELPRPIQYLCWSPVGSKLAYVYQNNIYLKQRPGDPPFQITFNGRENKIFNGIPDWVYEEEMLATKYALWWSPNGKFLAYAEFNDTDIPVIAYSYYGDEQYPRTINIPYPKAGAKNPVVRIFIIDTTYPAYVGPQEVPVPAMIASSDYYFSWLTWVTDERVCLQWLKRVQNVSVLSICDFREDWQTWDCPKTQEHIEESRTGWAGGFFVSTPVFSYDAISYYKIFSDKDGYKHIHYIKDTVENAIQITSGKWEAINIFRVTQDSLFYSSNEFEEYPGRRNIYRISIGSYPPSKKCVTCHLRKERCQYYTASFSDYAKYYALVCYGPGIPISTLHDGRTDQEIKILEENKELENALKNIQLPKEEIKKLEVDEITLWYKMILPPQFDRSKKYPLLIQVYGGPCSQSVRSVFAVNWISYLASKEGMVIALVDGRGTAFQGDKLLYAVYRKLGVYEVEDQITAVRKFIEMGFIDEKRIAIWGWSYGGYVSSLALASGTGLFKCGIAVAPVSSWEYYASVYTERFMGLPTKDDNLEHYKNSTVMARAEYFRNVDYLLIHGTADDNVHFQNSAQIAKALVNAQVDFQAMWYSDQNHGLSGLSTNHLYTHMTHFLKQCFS
Sequence of human Fibroblast activation protein alpha (hFAP) (Q12884 38-760): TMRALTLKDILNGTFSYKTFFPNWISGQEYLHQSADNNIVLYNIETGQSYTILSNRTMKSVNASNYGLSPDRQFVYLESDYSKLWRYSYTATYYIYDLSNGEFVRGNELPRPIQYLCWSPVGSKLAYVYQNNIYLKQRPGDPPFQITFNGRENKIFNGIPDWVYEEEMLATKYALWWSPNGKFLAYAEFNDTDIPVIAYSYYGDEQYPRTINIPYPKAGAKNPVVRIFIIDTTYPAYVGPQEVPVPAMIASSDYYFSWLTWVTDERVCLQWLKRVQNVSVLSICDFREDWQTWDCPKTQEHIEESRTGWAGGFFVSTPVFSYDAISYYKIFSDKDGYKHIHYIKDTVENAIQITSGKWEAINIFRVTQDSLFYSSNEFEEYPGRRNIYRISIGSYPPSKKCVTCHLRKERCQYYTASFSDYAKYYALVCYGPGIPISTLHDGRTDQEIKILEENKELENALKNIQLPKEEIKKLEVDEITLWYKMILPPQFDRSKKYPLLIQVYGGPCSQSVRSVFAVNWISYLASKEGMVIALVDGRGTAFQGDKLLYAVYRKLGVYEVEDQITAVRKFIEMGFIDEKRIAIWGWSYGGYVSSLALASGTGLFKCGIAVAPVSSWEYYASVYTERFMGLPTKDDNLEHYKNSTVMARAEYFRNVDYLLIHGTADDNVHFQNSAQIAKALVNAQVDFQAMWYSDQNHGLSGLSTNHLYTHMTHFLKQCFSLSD
Sequence of FAP (Q12884 38-760): as above

| hFAP Binding assay k(off) (hFAP (M39-A757)) [s⁻¹] | hFAP Binding assay k(on) (hFAP (M39-A757)) [M⁻¹ s⁻¹] | pKd (hFAP (M39-A757)) | pIC50 [1] | pIC50 [2] | solubility (Kinetic solubility; [5]) [µM] | microsomal CLint [3, 6] [µL/min/mg] | rHep CLint [4] [μL/min/1E6] | pIC50 (FAP; hFAP 0.24 nM) | pIC50 (FAP; hFAP […]) | Compound | solubility (Kinetic solubility) [µM] | microsomal CLint [3] [µL/min/mg] |
| --- | --- | --- | --- | --- | --- | --- | --- | --- | --- | --- | --- | --- |
| 0.000098 | 3800000 | 10.59 | 6.66 | 9.74 | 150 | 220 | 250 | 9.36 |  | N#C[C@@H]1CSCN1C(=O)CNC(=O)c1ccnc2ccc(N3C[C@@H]4CC[C@H]3C4)cc12 (mixture of isomers) [Example 210, 6-((1RS,4SR)-2-Azabicyclo[2.2.1]heptan-2-yl)-N-(2-((R)-4-cyanothiazolidin-3-yl)-2-oxoethyl)quinoline-4-carboxamide] |  |  |
| 0.000066 | 88000 | 9.12 | 5.72 | 9.38 | 6 (≈ 2.61 µg/mL) | 15 | 5.3 |  | 9.14 | CC(C)n1nccc1-c1ccc2nccc(C(=O)NCC(=O)N3CSC[C@H]3C#N)c2c1 [Example 197, (R)—N-(2-(4-Cyanothiazolidin-3-yl)-2-oxoethyl)-6-(1-isopropyl-1H-pyrazol-5-yl)quinoline-4-carboxamide] |  |  |
| 0.00023 | 6200000 | 10.35 | 6.52 | 10.21 | 13 (≈ 5.32 µg/mL) | 57 | 49 |  | 9.66 | C[C@H]1CCN(c2ccc3nccc(C(=O)NCC(=O)N4CSC[C@H]4C#N)c3c2)C1 [Example 54, N-(2-((R)-4-Cyanothiazolidin-3-yl)-2-oxoethyl)-6-((S)-3-methylpyrrolidin-1-yl)quinoline-4-carboxamide] |  |  |
| 0.000085 | 710000 | 9.92 | 6.55 | 10.24 | 640 (≈ 281 µg/mL) | 31 | 46 |  | 9.60 | C[C@H]1CCN(c2ccc3nccc(C(=O)NCC(=O)N4CSC[C@H]4C#N)c3c2)CCO1 [Example 62, N-(2-((R)-4-Cyanothiazolidin-3-yl)-2-oxoethyl)-6-((S)-7-methyl-1,4-oxazepan-4-yl)quinoline-4-carboxamide] |  |  |
|  |  | 10.48 | 6.48 | 10.19 | 26 (≈ 10.6 µg/mL) | 46 | 130 |  | 9.66 | N#C[C@@H]1CSCN1C(=O)CNC(=O)c1ccnc2ccc(N3CC4CC4C3)cc12 (stereo partly drawn) [Example 206, 6-(3-Azabicyclo[3.1.0]hexan-3-yl)-N-(2-((R)-4-cyanothiazolidin-3-yl)-2-oxoethyl)quinoline-4-carboxamide] |  |  |
| 0.000089 | 1400000 | 10.17 | 6.77 | 9.96 | 18 (≈ 7.62 µg/mL) | 89 | 51 |  | 9.54 | CC1(C)CCN(c2ccc3nccc(C(=O)NCC(=O)N4CSC[C@H]4C#N)c3c2)C1 [Example 48, (R)—N-(2-(4-Cyanothiazolidin-3-yl)-2-oxoethyl)-6-(3,3-dimethylpyrrolidin-1-yl)quinoline-4-carboxamide] |  |  |
| 0.00019 | 2600000 | 10.06 | 7.52 | 10.21 | 40 (≈ 17.7 µg/mL) | > 300 | 91 |  | 9.57 | N#C[C@@H]1CSCN1C(=O)CNC(=O)c1ccnc2ccc(N3CCCC[C@@H](F)C3)cc12 [Example 59, N-(2-((R)-4-Cyanothiazolidin-3-yl)-2-oxoethyl)-6-((R)-3-fluoroazepan-1-yl)quinoline-4-carboxamide] |  |  |
|  |  | 10.07 | 6.85 | 9.72 | 19 (≈ 8.96 µg/mL) | 49 | 19 |  | 9.48 | Cc1ccc(C2CN(c3ccc4nccc(C(=O)NCC(=O)N5CSC[C@H]5C#N)c4c3)C2)cc1 [Example 183, (R)—N-(2-(4-Cyanothiazolidin-3-yl)-2-oxoethyl)-6-(3-(p-tolyl)azetidin-1-yl)quinoline-4-carboxamide] |  |  |
| 0.00018 | 5400000 | 10.32 | 6.72 | 9.85 | 340 (≈ 150 µg/mL) | 260 | 160 |  | 9.70 | N#C[C@@H]1CSCN1C(=O)CNC(=O)c1ccnc2ccc(N3CCCC[C@H]3CF)cc12 [Example 45, N-(2-((R)-4-Cyanothiazolidin-3-yl)-2-oxoethyl)-6-((S)-2-(fluoromethyl)-piperidin-1-yl)quinoline-4-carboxamide] |  |  |
| 0.000065 | 1300000 | 10.25 | 6.24 | 10.00 | 15 (≈ 6.74 µg/mL) | 31 | 7.6 |  | 9.51 | N#C[C@@H]1CSCN1C(=O)CNC(=O)c1ccnc2ccc(N3CC(C(F)(F)F)C3)cc12 [Example 26, (R)—N-(2-(4-Cyanothiazolidin-3-yl)-2-oxoethyl)-6-(3-(trifluoromethyl)-azetidin-1-yl)quinoline-4-carboxamide] |  |  |
| 0.0002 | 5900000 | 10.31 | 6.96 | 10.00 | 110 (≈ 45 µg/mL) | 200 | 190 |  | 9.70 | C[C@@H]1CCCN1c1ccc2nccc(C(=O)NCC(=O)N3CSC[C@H]3C#N)c2c1 [Example 211, N-(2-((R)-4-cyanothiazolidin-3-yl)-2-oxoethyl)-6-((R)-2-methylpyrrolidin-1-yl)quinoline-4-carboxamide] |  |  |
| 0.000068 | 890000 | 10.09 | 6.23 | 10.06 | > 1000 | 180 | 18 |  | 9.43 | C[C@@H]1COC[C@@H](C)N1c1ccc2nccc(C(=O)NCC(=O)N3CSC[C@H]3C#N)c2c1 [Example 105, N-(2-((R)-4-Cyanothiazolidin-3-yl)-2-oxoethyl)-6-((3R,5R)-3,5-dimethyl-morpholino)quinoline-4-carboxamide] |  |  |
| 0.00022 | 3100000 | 10.15 | 7.42 | 10.14 | 19 (≈ 9.61 µg/mL) | 190 | 140 |  | 10.01 | N#C[C@@H]1CSCN1C(=O)CNC(=O)c1ccnc2ccc(N3CC(Cc4ccc(Cl)cc4)C3)cc12 [Example 187, (R)-6-(3-(4-Chlorobenzyl)azetidin-1-yl)-N-(2-(4-cyanothiazolidin-3-yl)-2-oxoethyl)quinoline-4-carboxamide] |  |  |
| 0.0020 | 6000000 | 9.47 | 6.89 | 9.80 | 120 (≈ 48.5 µg/mL) | 11 | 8.2 |  | 9.42 | N#C[C@@H]1CSCN1C(=O)CNC(=O)c1ccnc2ccc(-c3cncnc3)cc12 [Example 127, (R)—N-(2-(4-Cyanothiazolidin-3-yl)-2-oxoethyl)-6-(pyrimidin-5-yl)-quinoline-4-carboxamide] |  |  |

| Compound | hFAP Binding assay k(off) (hFAP (M39-A757)) [s⁻¹] | hFAP Binding assay k(on) (hFAP (M39-A757)) [M⁻¹ s⁻¹] | pKd (hFAP (M39-A757)) | pIC50 [1] | pIC50 [2] | solubility (Kinetic solubility; [5]) [µM] | microsomal CLint [3, 6] [µL/min/mg] | rHep CLint [4] [μL/min/1E6] | pIC50 (FAP; hFAP 0.24 nM) | pIC50 (FAP; hFAP […]) | solubility (Kinetic solubility) [µM] | microsomal CLint [3] [µL/min/mg] |
| --- | --- | --- | --- | --- | --- | --- | --- | --- | --- | --- | --- | --- |
| N#C[C@@H]1CSCN1C(=O)CNC(=O)c1ccnc2ccc(N3CCOCC34CCC4)cc12 [Example 104, (R)—N-(2-(4-cyanothiazolidin-3-yl)-2-oxoethyl)-6-(8-oxa-5-azaspiro[3.5]nonan-5-yl)quinoline-4-carboxamide] | 0.000061 | 3000000 | 10.70 | 6.19 | 10.09 |  |  | 28 |  | 9.68 | 930 (≈ 420 µg/mL) | 130 |
